According to article PMC10439952, “JT002, a small molecule inhibitor of the NLRP3 inflammasome for the treatment of autoinflammatory disorders” (Scientific Reports, 2023):

System: OVA sensitized, OVA challenged and iTreg transferred CD8α-/- mice
Test: Murine model of iTreg induced IL-17-dependent neutrophilic asthma
Format: in vivo, mouse
Experimental: In an allergen-dependent, inducible regulatory T cell (iTreg) model of IL-17-dependent neutrophilic asthma, ovalbumin (OVA) sensitized recipient CD8α^−/− mice are administered iTreg cells intratracheally (i.t.) on Day 26 after the first OVA challenge and subsequently challenged with OVA on Days 26–28[48] (Fig. 5A). This model elicits TH17-dependent IL-17 release that promotes airway neutrophilia and enhanced airway hyperresponsiveness (AHR) to inhaled methacholine. We investigated the effect of JT002 at two doses in OVA sensitized, OVA challenged and iTreg transferred CD8α^−/− mice. JT002 was administered to mice once daily (QD) by oral gavage (p.o.) on Days 23–29 at 2.5 mg/kg (n = 3/group) and at 25 mg/kg (n = 7/group) before evaluation of airway hyperresponsiveness (AHR) and airway inflammation on Day 30 (Fig. 5A). Additional control groups included vehicle treated disease animals (OVA/OVA + iTregs; n = 7/group), OVA sensitized, OVA challenged control animals (OVA/OVA; n = 6/group) and phosphate buffer saline (PBS) sensitized, OVA challenged animals (PBS/OVA; n = 4/group). […] Sensitization and challenge with OVA led to an increase in total serum IgE as well as OVA-specific serum IgE, IgG1 and IgG2b even in the absence of iTreg instillation (Fig. 5E, Supplementary Fig. 4C).
CD4^+CD25^− T cells were enriched from spleens of naïve C57BL/6 mice to > 98% purity with MACS beads (Miltenyi Biotec, Bergisch-Gladbach, Germany). Cells were washed, counted, and resuspended to a final concentration of 4 × 10^6 cells per mL and cultured in X-Vivo 15 (Lonza, Wakersville, MD) supplemented with 5 ng/mL IL-2 and stimulated with bound anti-CD3 and 2 μg/mL soluble anti-CD28 with 5 ng/mL TGF-β for five to seven days to generate iTregs. Female CD8α^−/− C57BL6/j mice were sensitized by intraperitoneal injection of 20 μg OVA (Sigma Aldrich, St. Louis, MO) emulsified in 2.25 mg alum hydroxide (Imject Alum, Pierce, Rockford, IL) in a total volume of 100 μL on Days 0 and 14. Sensitized and challenged mice, denoted OVA/OVA, and non-sensitized but challenged littermates (PBS/OVA) received aerosol challenges for 20 min each day on three consecutive days (Days 26–28) with 1% OVA in PBS using an ultrasonic nebulizer (Omron, Vernon Hills, IL). On Day 26, differentiated iTregs cells generated in vitro were washed and adoptively transferred (5 × 10^5 in 50 μL of PBS) into OVA/OVA mice, denoted as OVA/OVA + iTregs. OVA/OVA + iTregs mice were dosed orally with JT002 at 2.5 or 25 mg/kg once daily on Days 23–29 or with vehicle (0.5% methyl cellulose, 0.25% Tween 80 in 50 mM NaH2PO4/Na2HPO4 at pH 8).
Determination of airway hyperresponsiveness (AHR) AHR was assessed on Day 30 (iTreg model) or 3 h after the O3 exposure (ozone model) as a change in airway resistance (cm H2O/mL/s) after challenge with aerosolized methacholine with using a whole body plethysmograph-based system (National Jewish Medical and Research Center, Denver, CO). Methacholine aerosol was administered by nebulization in increasing concentrations (12.5–100 mg/mL) and RL was continuously computed by fitting flow, volume, and pressure to an equation of motion (Labview, National Instruments, Dallas, TX). Bronchoalveolar Lavage Immediately after assessment of AHR, lungs were lavaged via the tracheal tube with 1 mL of Hanks’ balanced salt solution (Gibco, Grand Island, NY). Total cell numbers were counted. Differential cell counts for neutrophils and macrophages were performed in a blinded fashion by counting at least 200 cells on cytocentrifuged preparations (Model Cytospin 3, Shandon Ltd, Runcorn, UK) stained with Leukostat (Fisher Diagnostics, Fair Lawn, NJ). Cell-free BAL fluid was stored at − 80 °C until measurements of cytokine levels by ELISA (eBioscience, San Diego, CA) were performed. Blood Collection Immediately following AHR measurement, mice were euthanized by exsanguination and blood collected for serum. Samples were stored at − 80 °C for subsequent measurement of immunoglobulin levels by ELISA. […]

[1] = low dose 2.5 mg/kg p.o. QD Days 23–29

CO[C@@H]1COc2c(S(=O)(=O)NC(=O)Nc3c4c(cc5c3CCC5)CCC4)cnn2C1 [JT002]
BAL IL-6 concentration (25 mg/kg p.o. QD Days 23–29): significantly decreased
BAL IL-10 concentration (25 mg/kg p.o. QD Days 23–29): strong trend for increased
BAL IL-17 concentration (25 mg/kg p.o. QD Days 23–29): significantly decreased
BAL INFγ concentration (25 mg/kg p.o. QD Days 23–29): increased
airway eosinophilia (25 mg/kg p.o. QD Days 23–29): no effect
airway hyperresponsiveness (AHR) (25 mg/kg p.o. QD Days 23–29): significantly decreased
airway neutrophilia (25 mg/kg p.o. QD Days 23–29): significantly decreased
submucosal inflammatory cell infiltration (25 mg/kg p.o. QD Days 23–29): visibly decreased
serum OVA-specific IgE (high dose (25 mg/kg)): significant decrease
serum OVA-specific IgG isoforms (high dose (25 mg/kg)): no significant effect
serum total IgE (high dose (25 mg/kg)): significant decrease
airway hyperresponsiveness (AHR) [1]: no significant changes
airway inflammation [1]: no significant changes
